Data taken from US8058243B2, “Method for treating a brain cancer with ifenprodil” (HSC Research and Development Limited Partnership, priority 2006, dated 2011).
Where a name gives a salt, the structure may show the parent alone. Read-outs that look alike come from different tables or passages of the source.

System: murine neural precursor cells (neurosphere cultures)
Test: HTS of LOPAC library against secondary neurosphere cultures, MTT proliferation assay at 3 μM, day 7 (z score, P value)
Type: cell-based, mouse
[1] = LOPAC primary screen, neurosphere MTT proliferation, 3 μM, day 7
[2] = yes = significantly inhibited neurosphere proliferation (P<0.01) in the primary screen
[3] = LOPAC library screen, 3 μM, MTT, neurosphere cultures
[4] = yes/no: significantly inhibited neurosphere proliferation in primary screen
[5] = primary LOPAC screen, 3 μM, MTT, neurosphere proliferation
[6] = yes/no: significantly inhibited neurosphere proliferation in the primary screen
[7] = LOPAC library screen, 3 μM, MTT, secondary neurosphere cultures, day 7
[8] = yes/no: significantly inhibited neurosphere proliferation (P<0.01) in the primary screen
[9] = LOPAC screen, neurosphere MTT proliferation, 3 μM, day 7
[10] = yes/no: significantly inhibited neurosphere proliferation (P<0.01) in primary screen
[11] = LOPAC library screen at 3 μM, secondary neurosphere cultures, MTT

In the case of `C[C@](N)(Cc1ccc(O)cc1)C(=O)O` [L-alpha-Methyl-p-tyrosine], the “Z Score” value is reported as −1.8, the Z score [1] is reported as −1.800 and the Activity [2] is reported as “no”.

For `CC1(C)NC(=O)N(c2ccc([N+](=O)[O-])c(C(F)(F)F)c2)C1=O` [Nilutamide], the “Z Score” value [3] was 0.1188, the Z score [1] was 0.119 and the Activity [2] was “no”.

`CC(=O)O[C@H]1C[C@@H]2CC[C@@H]3[C@H](CC[C@@]4(C)[C@H]3C[C@H]([N+]3(C)CCCCC3)[C@@H]4OC(C)=O)[C@@]2(C)C[C@@H]1[N+]1(C)CCCCC1` [Pancuronium bromide] was tested, and the “Z Score” value [3] was 0.4077, the Z score [1] was 0.408 and the Activity [4] was “no”.

For `CCN(CC)c1ncnc2c1ncn2[C@@H]1O[C@H](COP(=O)([O-])OP(=O)([O-])C(Br)(Br)P(=O)([O-])O)[C@@H](O)[C@H]1O.[Na+].[Na+].[Na+]` [ARL 67156 trisodium salt], the “Z Score” value was −0.168, the Z score [5] was −0.168 and the Activity [6] was “no”.

`CC1=C(/C=C/C(C)=C/C=C/C(C)=C\C(=O)O)C(C)(C)CCC1` [13-cis-retinoic acid] was tested, and the “Z Score” value [7] was −1.469, the Z score [1] was −1.469 and the Activity [8] was “no”.

For `O=C(OCCN1CCCCC1)c1c[nH]c2ccccc12` [SB 203186], the “Z Score” value was 0.9365, the Z score [9] was 0.937 and the Activity [10] was “no”.

In the case of `CC(C(=O)O)c1cccc(C(=O)c2ccccc2)c1` (stereo not shown) [Ketoprofen], the Activity is reported as “no”, the “Z Score” value [11] is reported as −1.164 and the Z score [1] is reported as −1.164.

In the case of `CCC1(c2ccc(N)cc2)CCC(=O)NC1=O` (racemic) [(±)-p-Aminoglutethimide], the Activity is reported as “no” and the Z score [5] is reported as −0.444.

For `CCN1CCCC1CNC(=O)c1cc(S(N)(=O)=O)ccc1OC` (single isomer, unassigned; (-)) [(−)-Sulpiride], the “Z Score” value [7] was −2.647, the Z score [1] was −2.647 and the Activity [8] was “yes”.

In the case of `CN(C)C(=O)Oc1cccc([N+](C)(C)C)c1` [Neostigmine bromide], the “Z Score” value is reported as 1.228, the Z score [1] is reported as 1.228 and the Activity [2] is reported as “no”.

`CCN(CC)CCCCCCCCOC(=O)c1cc(OC)c(OC)c(OC)c1.Cl` [TMB-8 hydrochloride] was tested, and the “Z Score” value was 1.707, the Z score [1] was 1.707 and the Activity [2] was “no”.

In the case of `O=c1ccn([C@@H]2O[C@H](COP(=O)([O-])OP(=O)([O-])[O-])[C@@H](O)[C@H]2O)c(=O)[nH]1.[Na+].[Na+].[Na+]` [Uridine 5′-diphosphate sodium], the “Z Score” value (168 h, 3 µM) is reported as 0.7074, the Z score (168 h, 3 µM) is reported as 0.707 and the Activity [6] is reported as “no”.

With `C[C@]12CCC(=O)C=C1CC[C@@H]1[C@@H]2CC[C@]2(C)C(=O)CC[C@@H]12` [4-Androstene-3,17-dione] the “Z Score” value was −0.6917, the Z score [5] was −0.692 and the Activity [6] was “no”.

`Nc1nc(O)c2ncn(COC(CO)CO)c2n1` [Ganciclovir] was tested, and the “Z Score” value [7] was −8.939, the Z score [1] was −8.939 and the Activity [8] was “yes”.

With `CC(C)NCC(O)COc1cccc2[nH]ccc12` (stereo not shown) [Pindolol] the “Z Score” value [3] was −0.07895, the Z score [1] was −0.079 and the Activity [4] was “no”.

For `CC(=O)C(C)=O` [2,3-Butanedione], the “Z Score” value was −1.642, the Z score [9] was −1.642 and the Activity [10] was “no”.

`CCCCCCCCCC(=O)NC(CN1CCOCC1)[C@H](O)c1ccccc1.Cl` (mixture of isomers) was tested, and the Activity was “no” and the Z score [1] was −1.109.

With `CC(N)(C(=O)O)c1ccc(C(=O)O)cc1` (stereo not drawn) [(B1)-alpha-Methyl-4-carboxyphenylglycine] the “Z Score” value was 0.727.

For `O=c1c(O)c(-c2ccc(O)cc2O)oc2cc(O)cc(O)c12` [Morin], the “Z Score” value (168 h, 3 µM) was −2.216, the Z score (168 h, 3 µM) was −2.216 and the Activity [2] was “no”.

For `CCOC(=O)C(C)(C)Oc1ccc(Cl)cc1` [Clofibrate], the “Z Score” value [7] was −1.738 and the Z score [9] was −1.738.

With `NCC(=O)NCCC(c1ccccc1)c1ccccc1` [N-(3,3-Diphenylpropyl)glycinamide] the “Z Score” value [7] was −1.243, the Z score [1] was −1.243 and the Activity [10] was “no”.

In the case of `CNc1ncnc2c1ncn2[C@H]1C[C@H](OP(=O)(O)O)[C@@H](COP(=O)(O)O)O1` [MRS 2179], the “Z Score” value is reported as −1.246, the Z score [1] is reported as −1.246 and the Activity [2] is reported as “no”.

For `CN1CCc2ccccc2Cc2[nH]c3ccccc3c2CC1` [LE 300], the Activity was “no”, the “Z Score” value was −1.07 and the Z score was −1.070.

With `CC(=O)O[C@]1(C(C)=O)CC[C@H]2[C@@H]3C=C(Cl)C4=CC(=O)[C@@H]5C[C@@H]5[C@]4(C)[C@H]3CC[C@@]21C` [Cyproterone acetate] the “Z Score” value [7] was −1.803, the Z score [9] was −1.803 and the Activity [10] was “no”.

`CC1=NS(=O)(=O)c2cc(Cl)ccc2N1` [Diazoxide] was tested, and the “Z Score” value [3] was 0.04511, the Z score [9] was 0.045 and the Activity [10] was “no”.

In the case of `NC(Cc1ccc(Cl)cc1)C(=O)O` (racemic) [(±)-p-Chlorophenylalanine], the Z score [9] is reported as −0.247 and the Activity [10] is reported as “no”.

In the case of `COc1ccc2c3c1O[C@H]1C(=O)CC[C@@]4(O)[C@@H](C2)N(CC2CC2)CC[C@]314.Cl` [(−)-3-Methoxynaltrexone hydrochloride], the “Z Score” value is reported as 0.5963, the Z score [1] is reported as 0.596 and the Activity [8] is reported as “no”.

`N.N.N.N.N.N.N.N.N.N.N.N.N.N.[Cl-].[Cl-].[Cl-].[Cl-].[Cl-].[Cl-].[O-2].[O-2].[Ru+3].[Ru+3].[Ru+4]` [Ruthenium red] was tested, and the “Z Score” value was −0.07388, the Z score [1] was −0.074 and the Activity [4] was “no”.

`C#CC(N)CCC(=O)O` (stereo not shown) [gamma-Acetylinic GABA] was tested, and the “Z Score” value was 1.285, the Z score [5] was 1.285 and the Activity [6] was “no”.

`C[N+]1(C)CCN(c2ccccc2)CC1.[I-]` [1,1-Dimethyl-4-phenyl-piperazinium iodide] was tested, and the “Z Score” value was −1.057, the Z score [9] was −1.057 and the Activity [10] was “no”.

In the case of `CN(C)C(=O)N=NC(=O)N(C)C` [N,N,N′,N′-Tetramethylazodicarboxamide], the “Z Score” value (168 h, 3 µM) is reported as −0.6393, the Z score (168 h, 3 µM) is reported as −0.639 and the Activity [10] is reported as “no”.

`O=c1[nH]c2ccccc2c2ccccc12` [6(5H)-Phenanthridinone] was tested, and the “Z Score” value (168 h, 3 µM) was 0.6765, the Z score (168 h, 3 µM) was 0.677 and the Activity [4] was “no”.

`C#CCOC(=O)C1=CCCN(C)C1` [Arecaidine propargyl ester hydrobromide] was tested, and the “Z Score” value was −9.931, the Z score [1] was −9.931 and the Activity [8] was “yes”.

For `COC(=O)C1=C(C)NC(C)=C(C(=O)OC)C1c1ccccc1[N+](=O)[O-]` [Nifedipine], the “Z Score” value (168 h, 3 µM) was −0.2937 and the Z score (168 h, 3 µM) was −0.294.

With `Cl.OC(CCN1CCCCC1)(c1ccccc1)C1CCCCC1` (stereo not shown) [Trihexylphenidyl hydrochloride] the Z score [5] was 1.215 and the Activity [6] was “no”.

In the case of `Br.Cc1o[nH]c(=O)c1CC(N)C(=O)O` (stereo not shown) [(B1)-AMPA hydrobromide], the “Z Score” value is reported as −0.4272.

With `C[C@]12C=CC(=O)C=C1CC[C@@H]1C2=CC[C@]2(C)[C@@H](C(=O)CN3CCN(c4cc(N5CCCC5)nc(N5CCCC5)n4)CC3)CC[C@@H]12.O=C(O)/C=C\C(=O)O` [U-74389G maleate] the “Z Score” value [7] was −8.942, the Z score [1] was −8.942 and the Activity [8] was “yes”.

In the case of `CC(N)C(O)c1ccc(O)c(O)c1` (single isomer, unassigned; (-)) [(−)-alpha-Methylnorepinephrine], the “Z Score” value is reported as 1.193, the Z score [9] is reported as 1.193 and the Activity [10] is reported as “no”.

`O=c1cc(-c2ccc(O)c(O)c2)oc2cc(O)cc(O)c12` [Luteolin] was tested, and the “Z Score” value [7] was −1.323, the Z score [1] was −1.323 and the Activity [10] was “no”.

With `CCN(CC)C(=O)NC1C=C2c3cccc4[nH]cc(c34)C[C@H]2N(C)C1.O=C(O)/C=C\C(=O)O` (stereo partly drawn) [R(+)-Lisuride hydrogen maleate] the “Z Score” value was −1.041 and the Z score [1] was −1.041.

With `COc1ccc(CCN(C)CCCC(C#N)(c2ccc(OC)c(OC)c2)C(C)C)cc1OC.Cl` (stereo not shown) [(B1)-Verapamil hydrochloride] the “Z Score” value was 1.008.

With `COc1ccc2c(c1)c(CC(=O)N1CCOCC1)c(C)n2C(=O)c1ccc(Cl)cc1` [Indomethacin morpholinylamide] the “Z Score” value (168 h, 3 µM) was −3.398, the Z score (168 h, 3 µM) was −3.398 and the Activity [8] was “yes”.

With `N=C(N)N1CCc2ccccc2C1` [Debrisoquin sulfate] the “Z Score” value [11] was −0.3034, the Z score [9] was −0.303 and the Activity [10] was “no”.

In the case of `CN1CCN(C2Cc3ccccc3Sc3ccc(Cl)cc32)CC1.O=C(O)/C=C\C(=O)O` (stereo not shown) [(B1)-Octoclothepin maleate], the “Z Score” value is reported as 1.473.

`Cc1nc2ccccn2c(=O)c1CCN1CCC(C(=O)c2ccc(F)cc2)CC1` [Pirenperone] was tested, and the “Z Score” value [3] was 0.2279, the Z score [1] was 0.228 and the Activity [8] was “no”.

For `CC(C)Cc1ccc(C(C)C(=O)O)cc1` (racemic) [(±)-Ibuprofen], the Z score [1] was −0.262 and the Activity [10] was “no”.

For `Br.CCCN(CCC)C1CCc2ccc(O)cc2C1` (stereo not shown) [(B1)-7-Hydroxy-DPAT hydrobromide], the “Z Score” value was −11.1.

With `Cl.c1ccc2c(N3CCNCC3)cccc2c1` [1-(1-Naphthyl)piperazine hydrochloride] the “Z Score” value was 0.2301, the Z score [1] was 0.230 and the Activity [4] was “no”.

In the case of `NNC(=O)c1ccc(O)cc1` [4-Hydroxybenzhydrazide], the “Z Score” value is reported as −0.7888, the Z score [1] is reported as −0.789 and the Activity [10] is reported as “no”.

With `CN1CCN(C2Cc3ccccc3Sc3ccc(Cl)cc32)CC1.O=C(O)/C=C\C(=O)O` (racemic) [(±)-Octoclothepin maleate] the Z score [1] was 1.473 and the Activity [8] was “no”.

In the case of `Cl.Clc1ccc(N2CCN(Cc3c[nH]c4ncccc34)CC2)cc1` [L-745,870 hydrochloride], the “Z Score” value is reported as −11.27 and the Z score [1] is reported as −11.274.

`CC(C)C[C@H](NP(=O)(O)O[C@@H]1O[C@@H](C)[C@H](O)[C@@H](O)[C@H]1O)C(=O)N[C@@H](Cc1c[nH]c2ccccc12)C(=O)O` [Phosphoramidon disodium] was tested, and the “Z Score” value (168 h, 3 µM) was −0.5097, the Z score (168 h, 3 µM) was −0.510 and the Activity [4] was “no”.

With R(−)-Denopamine the “Z Score” value [7] was −4.486, the Z score [1] was −4.486 and the Activity [8] was “yes”.
